# Measurements published in patent publication US9796958B2, “Bacterial growth enhancer” (Plant Bioscience Limited, priority 2005, dated 2017).
# Key:
# Type in all cases: cell-based
# E. coli = conditions: 55Fe-complexed human lactoferrin, tannic acid 50 μg/ml, other compounds 100 μM, BF 2% v/v
# Experimental: (§1) L. casei and E. coli were added at around 5×10^6 CFU/ml to triplicate 1 ml serum-SAPI medium containing the additions shown in Table 2, and 2×10^5 cpm/ml of ^55Fe-complexed human lactoferrin. Tannic acid was used at 50 μg/ml, the other compounds were all used at 100 μM, final concentration; BF was used at 2% v/v. Cultures were incubated as described in the legend to FIG. 2, and growth enumerated on MRS agar (L. casei) or Luria agar (E. coli). ^55Fe incorporation was determined by scintillation counting of triplicate washed bacteria cultures.
# L. casei = assay: Delivery of lactoferrin-complexed 55Fe to bacteria in serum-SAPI; conditions: 55Fe-complexed human lactoferrin, tannic acid 50 μg/ml, other compounds 100 μM, BF 2% v/v
# Experimental: as §1
# LAB = LAB growth response to catecholamines in serum-based media; conditions: serum-based media only
compound,measurement,setting,value
O=C(O)/C=C/c1ccc(O)c(O)c1 [Caffeic acid],55Fe incorporation/ml of culture,E. coli,11385
same,55Fe incorporation/ml of culture,L. casei,29
O=C(/C=C/c1ccc(O)c(O)c1)O[C@@H]1C[C@](O)(C(=O)O)C[C@@H](O)[C@H]1O [Chlorogenic acid],55Fe incorporation/ml of culture,E. coli,7374
same,55Fe incorporation/ml of culture,L. casei,28
NCCc1ccc(O)c(O)c1 [Dopamine],Increase in LAB growth,LAB,around 2 log-fold
same,55Fe incorporation/ml of culture,E. coli,6815
same,55Fe incorporation/ml of culture,L. casei,48
O=C(OC[C@H]1O[C@@H](OC(=O)c2cc(O)c(O)c(OC(=O)c3cc(O)c(O)c(O)c3)c2)[C@H](OC(=O)c2cc(O)c(O)c(OC(=O)c3cc(O)c(O)c(O)c3)c2)[C@@H](OC(=O)c2cc(O)c(O)c(OC(=O)c3cc(O)c(O)c(O)c3)c2)[C@@H]1OC(=O)c1cc(O)c(O)c(OC(=O)c2cc(O)c(O)c(O)c2)c1)c1cc(O)c(O)c(OC(=O)c2cc(O)c(O)c(O)c2)c1 [Tannic acid],55Fe incorporation/ml of culture,E. coli,13952
same,55Fe incorporation/ml of culture,L. casei,28
NC[C@H](O)c1ccc(O)c(O)c1 [Noradrenaline],Increase in LAB growth,LAB,around 2 log-fold
same,55Fe incorporation/ml of culture,E. coli,8542
same,55Fe incorporation/ml of culture,L. casei,29
Catechin,55Fe incorporation/ml of culture,E. coli,3931
same,55Fe incorporation/ml of culture,L. casei,57
